The target of series [1] is T1, c-Mer (Homo sapiens (Human), UniProt Q12866). The series can be described thus: TAM enzymatic assay (HTRF), Mer. The series is classed as biochemical. The method, then: (§1) The kinase assay buffer contained 50 mM HEPES, pH7.5, 10 mM MgCl2, 1 mM EGTA, 0.01% NP-40 and 2 mM DTT. 0.1 ul test compounds dissolved in DMSO were transferred from compound plates to white 384-well assay plates (Greiner […] plates). The final concentration of DMSO was 1.25%. Enzyme solutions of 5.1 nM phosphor-Axl, or 0.0625 nM c-Mer (Carna Biosciences, 08-108), or 0.366 nM Tyro3 (Life Technologies, PR7480A) were prepared in assay buffer. A 1 mM stock solution of peptide substrate Biotin-[…]-amide SEQ ID NO: 1 (Quality Controlled Biochemicals, MA) dissolved in DMSO was diluted to 1 uM in assay buffer containing 2000 uM ATP. 4 ul enzyme solution (or assay buffer for the enzyme blank) was added to the appropriate wells in each plate, and then 4 ul/well substrate solution was added to initiate the reaction. The plate was protected from light and incubated at room temperature for 60 min. […] The plate was incubated for 1 h at room temperature, and HTRF (homogenous time resolved fluorescence) signal was measured on a PHERAstar FS plate reader (BMG labtech). Percentage of inhibition was calculated for each concentration and IC50 value was generated from curve fitting with GraphPad Prism software.
T1 sequence (Q12866 21-999): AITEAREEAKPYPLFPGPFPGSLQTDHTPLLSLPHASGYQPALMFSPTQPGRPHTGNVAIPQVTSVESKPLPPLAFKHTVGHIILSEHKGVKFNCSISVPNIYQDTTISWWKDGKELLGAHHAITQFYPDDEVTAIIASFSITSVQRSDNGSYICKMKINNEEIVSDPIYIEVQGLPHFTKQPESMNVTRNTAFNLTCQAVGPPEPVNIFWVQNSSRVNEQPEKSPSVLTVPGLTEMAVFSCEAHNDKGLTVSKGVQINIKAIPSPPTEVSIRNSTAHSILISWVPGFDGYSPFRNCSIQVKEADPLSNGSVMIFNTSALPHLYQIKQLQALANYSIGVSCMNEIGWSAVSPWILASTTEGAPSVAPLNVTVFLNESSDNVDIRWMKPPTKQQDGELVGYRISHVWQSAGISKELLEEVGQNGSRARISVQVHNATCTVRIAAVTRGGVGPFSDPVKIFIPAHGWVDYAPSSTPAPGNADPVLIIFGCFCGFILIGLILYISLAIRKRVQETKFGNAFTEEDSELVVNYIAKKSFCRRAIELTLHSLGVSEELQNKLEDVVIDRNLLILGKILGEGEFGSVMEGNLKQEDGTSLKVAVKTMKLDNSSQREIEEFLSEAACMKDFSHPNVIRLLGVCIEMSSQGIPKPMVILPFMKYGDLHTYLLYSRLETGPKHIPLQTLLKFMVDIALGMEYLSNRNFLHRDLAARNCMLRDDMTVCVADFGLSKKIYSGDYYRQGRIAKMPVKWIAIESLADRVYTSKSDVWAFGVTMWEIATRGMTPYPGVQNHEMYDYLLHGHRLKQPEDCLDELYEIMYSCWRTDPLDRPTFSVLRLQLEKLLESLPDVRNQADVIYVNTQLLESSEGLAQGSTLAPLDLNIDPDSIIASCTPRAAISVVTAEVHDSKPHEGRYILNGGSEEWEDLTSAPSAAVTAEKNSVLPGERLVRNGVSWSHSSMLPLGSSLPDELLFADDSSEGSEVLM

The target of series [2] is T2, phosphor-Axl (Homo sapiens (Human), UniProt P30530). The experiment in a line: TAM enzymatic assay (HTRF), Axl. It is filed as biochemical. On the procedure: Axl Autophosphorylation Assay
T2 sequence (P30530 26-894): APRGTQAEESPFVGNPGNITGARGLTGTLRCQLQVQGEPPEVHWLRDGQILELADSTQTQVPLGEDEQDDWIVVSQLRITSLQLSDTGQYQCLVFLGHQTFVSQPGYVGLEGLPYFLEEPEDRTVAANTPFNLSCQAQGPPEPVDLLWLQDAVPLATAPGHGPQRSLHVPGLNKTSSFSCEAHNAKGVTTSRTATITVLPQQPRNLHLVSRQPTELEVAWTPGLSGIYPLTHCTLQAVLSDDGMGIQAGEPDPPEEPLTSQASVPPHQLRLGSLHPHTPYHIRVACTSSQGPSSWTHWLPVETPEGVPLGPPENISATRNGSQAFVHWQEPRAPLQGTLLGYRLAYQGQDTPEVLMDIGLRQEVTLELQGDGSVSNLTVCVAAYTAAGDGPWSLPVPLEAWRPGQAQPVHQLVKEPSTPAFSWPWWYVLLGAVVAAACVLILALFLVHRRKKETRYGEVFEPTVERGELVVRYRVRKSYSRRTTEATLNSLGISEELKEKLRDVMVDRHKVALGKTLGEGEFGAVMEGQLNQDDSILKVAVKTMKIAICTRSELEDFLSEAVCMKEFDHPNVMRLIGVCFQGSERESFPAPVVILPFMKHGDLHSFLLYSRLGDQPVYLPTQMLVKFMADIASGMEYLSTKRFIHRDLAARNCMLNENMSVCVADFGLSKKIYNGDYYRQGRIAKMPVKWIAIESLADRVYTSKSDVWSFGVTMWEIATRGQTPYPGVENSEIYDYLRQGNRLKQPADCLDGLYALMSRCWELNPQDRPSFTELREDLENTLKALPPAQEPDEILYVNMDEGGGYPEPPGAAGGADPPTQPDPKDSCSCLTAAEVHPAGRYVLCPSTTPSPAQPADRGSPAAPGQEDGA
Autophosphorylation of Axl was carried out by incubating the recombinant Axl protein (Life Technologies, PV4275) in buffer containing 50 mM Tris, pH7.5, 0.2 mg/ml Axl, 5 mM ATP, 20 mM MgCl2 and 2 mM DTT at room temperature for 1 hour.
as §1, with “reaction.” for “reaction. The plate was protected from light and incubated at room temperature for 60 min.”
Background: Time-resolved FRET reads energy transfer from a long-lived donor to a nearby acceptor.

A short description of series [3]: Solubility study in aqueous surfactant solutions. It is filed as physicochemical. The note with it: thermodynamic from solid, 37° C., after 60 minutes stirring, theoretical maximum 0.20 mg/ml, read-out: Concentration (solubility). On the procedure:
The solubility of Compound I maleate was determined in aqueous solution in the presence of several surfactants at 37° C. The surfactants included sodium lauryl sulfate (SLS), poloxamer 188, and poloxamer 407 at a concentration of 0.2% (w/v) in water; a vessel without surfactant was included as a control. The experiment was performed in a Distek 2100 dissolution bath using 500 ml of media stirred at 100 RPM (USP type II dissolution apparatus). 100 mg of drug substance (free base equivalent) was added to the media to give a theoretical maximum concentration of 0.20 mg/ml. 5 ml samples were taken and filtered with a 0.45 micron GHP filter prior to analysis by HPLC. Listed below are the observed concentrations for the samples after 60 minutes of stirring time.

In series [4] the target is T1, c-Mer. As to conditions: data disclosed in U.S. Pat. No. 9,981,975; cited from earlier work.
The target of series [5] is T2, phosphor-Axl. The note with it: data disclosed in U.S. Pat. No. 9,981,975; cited from earlier work.

Each structure is given as a SMILES string. Where a name gives a salt, the structure may show the parent alone. Read-outs that look alike come from different tables or passages of the source.

The term IC50 denotes the concentration that gives 50% inhibition. With `CC(C)C(=O)N1CCC(c2cc(-c3ccc(NC(=O)c4cn(C(C)C)c(=O)n(-c5ccccn5)c4=O)cc3)c3c(N)ncnn23)CC1.O=C(O)/C=C\C(=O)O` [Compound I maleate, N-(4-(4-amino-7-(1-isobutyrylpiperidin-4-yl)pyrrolo[2,1-f][1,2,4]triazin-5-yl)phenyl)-1-isopropyl-2,4-dioxo-3-(pyridin-2-yl)-1,2,3,4-tetrahydropyrimidine-5-carboxamide maleate], the IC50 on c-Mer [1] and on phosphor-Axl [2] was below 5 nM in each case. Further, the solubility at 60 min in series [3] (0.2% (w/v) poloxamer 188 in water, aqueous with cosolvent or surfactant or cyclodextrin, 0.2% Poloxamer 188 in water) was 18 µg/mL; in series [3] (0.2% (w/v) poloxamer 407 in water, aqueous with cosolvent or surfactant or cyclodextrin, 0.2% Poloxamer 407 in water) it was 9 µg/mL; in series [3] (0.2% (w/v) sodium lauryl sulfate in water, aqueous with cosolvent or surfactant or cyclodextrin, 0.2% SLS in water) it was above 200 µg/mL; in series [3] (water without surfactant (control), water (no surfactant)) it was 7 µg/mL.

Regarding `CC(C)C(=O)N1CCC(c2cc(-c3ccc(NC(=O)c4cn(C(C)C)c(=O)n(-c5ccccn5)c4=O)cc3)c3c(N)ncnn23)CC1` [Compound I trifluoroacetic acid salt], the IC50 at c-Mer [4] and on phosphor-Axl [5] was below 5 nM each time.

The record behind these values is patent publication US11241438B2, “Formulations of an AXL/MER inhibitor” (Incyte Corporation, priority 2018, dated 2022).
